In US20090291942A1, “IMIDAZO PYRIDINE DERIVATIVES” (priority 2008, published 2009):
Where a name gives a salt, the structure may show the parent alone.

These compounds were tested against T1, human GPR4 (Homo sapiens, UniProt P46093) (assay: Cell-based assay for human GPR4 activity (pH-induced cAMP formation, HTRF)). Conditions: HeLa cells stably expressing human GPR4, pH-induced cAMP formation.
T1 construct: expressed in transfected cells
T1 sequence (P46093 whole entry): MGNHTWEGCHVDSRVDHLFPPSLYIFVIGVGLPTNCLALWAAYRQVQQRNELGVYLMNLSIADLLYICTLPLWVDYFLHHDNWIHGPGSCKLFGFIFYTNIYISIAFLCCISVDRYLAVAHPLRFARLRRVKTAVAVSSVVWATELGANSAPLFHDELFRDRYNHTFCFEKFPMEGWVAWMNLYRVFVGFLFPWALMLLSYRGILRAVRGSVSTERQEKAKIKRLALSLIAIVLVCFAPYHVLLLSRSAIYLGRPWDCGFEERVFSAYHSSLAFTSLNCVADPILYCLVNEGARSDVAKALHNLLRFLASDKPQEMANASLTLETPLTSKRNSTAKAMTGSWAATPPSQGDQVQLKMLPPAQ
Description: a) Cell-Based Assay for Human GPR4 Activity
HeLa cells stably expressing human GPR4 were established by transfecting the cells with a construct containing the human GPR4 coding sequence. The cells were grown in DMEM/HAM's F12 medium supplemented with 10% fetal calf serum (FCS), 100 u/ml penicillin, 100 μg/ml streptomycin and 400 μg/ml G418 and 10 mM Hepes pH 8.0. pH-induced formation of cAMP was determined using the HTRF technology as provided by CisBio Inc. The cells were seeded in 384-well plates and cultured for 24 hours at 37° C., 5% CO2 before performing the assay. Medium was removed and 10 μl buffer A (HBS, 10 mM Hepes, pH 8, 2 mM IBMX) was added. For compound testing, buffer A with 2× concentrated compounds was used. Cells were incubated for 15 min at room temperature. 10 μl buffer B (HBS, 30 mM Hepes, specific pH) was added to reach the appropriate final pH for stimulation (see below) and incubation was continued for 15 min at room temperature. […] HBS: 130 mM NaCl, 0.9 mM NaH2PO4, 5.4 mM KCl, 0.8 mM MgSO4, CaCl2 1.8 mM, 25 mM glucose, 10-30 mM Hepes. Adjustment of HBS buffers: Bf A Bf B Final stimulation pH (1 volume buffer A+1 volume buffer B)
Compounds were diluted from fresh stock solutions at 10 mM in DMSO to 2 mM and then used for serial dilutions in DMSO.
`CCc1nc2c(C)cc(C)nc2n1Cc1ccc(C#CCN2CCN(C(C)C)CC2)cc1` [Example 1, 2-Ethyl-3-{4-[3-(4-isopropyl-piperazin-1-yl)-prop-1-ynyl]-benzyl}-5,7-dimethyl-3H-imidazo[4,5-b]pyridine] was tested, and the IC50 was 189 nM.
With `CCc1nc2c(C)cc(C)nc2n1Cc1ccc(C#CCN2CCC(N3CCCCC3)CC2)cc1` [Example 2, 1′-{3-[4-(2-Ethyl-5,7-dimethyl-imidazo[4,5-b]pyridin-3-ylmethyl)-phenyl]-prop-2-ynyl}-[1,4′]bipiperidine] the IC50 was 73 nM.
For `CCc1nc2c(C)cc(C)nc2n1Cc1ccc(C#CCN2CCCC2)cc1` [Example 3, 2-Ethyl-5,7-dimethyl-3-[4-(3-pyrrolidin-1-yl-prop-1-ynyl)-benzyl]-3H-imidazo[4,5-b]pyridine], the IC50 was 584 nM.
`CCc1nc2c(C)cc(C)nc2n1Cc1ccc(C#CCNCCN2CCCC2)cc1` [Example 4, {3-[4-(2-Ethyl-5,7-dimethyl-imidazo[4,5-b]pyridin-3-ylmethyl)-phenyl]-prop-2-ynyl}-(2-pyrrolidin-1-yl-ethyl)-amine] showed an IC50 of 704 nM.
In the case of `CCc1nc2c(C)cc(C)nc2n1Cc1ccc(CCN2CCC(N3CCCCC3)CC2)cc1` [Example 5, 1′-{2-[4-(2-Ethyl-5,7-dimethyl-imidazo[4,5-b]pyridin-3-ylmethyl)-phenyl]-ethyl}-[1,4′]bipiperidinyl], the IC50 is reported as 227 nM.
In the case of `CCc1nc2c(C)cc(C)nc2n1Cc1ccc(CCCN2CCN(C)CC2)cc1` [Example 6, 2-Ethyl-5,7-dimethyl-3-{4-[3-(4-methyl-piperazin-1-yl)-propyl]-benzyl}-3H-imidazo[4,5-b]pyridine dihydrochloride], the IC50 is reported as 395 nM.
`CCCN1CCN(CCCc2ccc(Cn3c(CC)nc4c(C)cc(C)nc43)cc2)CC1` [Example 7, 2-Ethyl-5,7-dimethyl-3-{4-[3-(4-propyl-piperazin-1-yl)-propyl]-benzyl}-3H-imidazo[4,5-b]pyridine] gave an IC50 of 39 nM.
Work on `CCc1nc2c(C)cc(C)nc2n1Cc1ccc(CCCN2CCN(C(C)C)CC2)cc1` [Example 8, 2-Ethyl-3-{4-[3-(4-isopropyl-piperazin-1-yl)-propyl]-benzyl}-5,7-dimethyl-3H-imidazo[4,5-b]pyridine dihydrochloride] yielded an IC50 of 274 nM.
In the case of `CCc1nc2c(C)cc(C)nc2n1Cc1ccc(CCCN2CCN(C3CC3)CC2)cc1` [Example 9, 3-{4-[3-(4-Cyclopropyl-piperazin-1-yl)-propyl]-benzyl}-2-ethyl-5,7-dimethyl-3H-imidazo[4,5-b]pyridine], the IC50 is reported as 341 nM.
With `CCCCN1CCN(CCCc2ccc(Cn3c(CC)nc4c(C)cc(C)nc43)cc2)CC1` [Example 10, 3-{4-[3-(4-Butyl-piperazin-1-yl)-propyl]-benzyl}-2-ethyl-5,7-dimethyl-3H-imidazo[4,5-b]pyridine] the IC50 was 123 nM.
With `CCc1nc2c(C)cc(C)nc2n1Cc1ccc(CCCN2CCN(C(C)CC)CC2)cc1` (stereo not shown) [Example 11, 3-{4-[3-(4-sec-Butyl-piperazin-1-yl)-propyl]-benzyl}-2-ethyl-5,7-dimethyl-3H-imidazo[4,5-b]pyridine] the IC50 was 479 nM.
In the case of `CCc1nc2c(C)cc(C)nc2n1Cc1ccc(CCCN2CCN(C(C)(C)C)CC2)cc1` [Example 12, 3-{4-[3-(4-tert-Butyl-piperazin-1-yl)-propyl]-benzyl}-2-ethyl-5,7-dimethyl-3H-imidazo[4,5-b]pyridine], the IC50 is reported as 53 nM.
`CCCCCN1CCN(CCCc2ccc(Cn3c(CC)nc4c(C)cc(C)nc43)cc2)CC1` [Example 13, 2-Ethyl-5,7-dimethyl-3-{4-[3-(4-pentyl-piperazin-1-yl)-propyl]-benzyl}-3H-imidazo[4,5-b]pyridine] showed an IC50 of 662 nM.
`CCCC(C)N1CCN(CCCc2ccc(Cn3c(CC)nc4c(C)cc(C)nc43)cc2)CC1` (stereo not shown) [Example 14, 2-Ethyl-5,7-dimethyl-3-(4-{3-[4-(1-methyl-butyl)-piperazin-1-yl]-propyl}-benzyl)-3H-imidazo[4,5-b]pyridine] showed an IC50 of 217 nM.
In the case of `CCc1nc2c(C)cc(C)nc2n1Cc1ccc(CCCN2CCN(C(CC)CC)CC2)cc1` [Example 15, 2-Ethyl-3-(4-{3-[4-(1-ethyl-propyl)-piperazin-1-yl]-propyl}-benzyl)-5,7-dimethyl-3H-imidazo[4,5-b]pyridine], the IC50 is reported as 50 nM.
`CCc1nc2c(C)cc(C)nc2n1Cc1ccc(CCCN2CCN(CCC(C)C)CC2)cc1` [Example 16, 2-Ethyl-5,7-dimethyl-3-(4-{3-[4-(3-methyl-butyl)-piperazin-1-yl]-propyl}-benzyl)-3H-imidazo[4,5-b]pyridine] was tested, and the IC50 was 283 nM.
Work on `CCc1nc2c(C)cc(C)nc2n1Cc1ccc(CCCN2CCN(CC3CCC3)CC2)cc1` [Example 17, 3-{4-[3-(4-Cyclobutylmethyl-piperazin-1-yl)-propyl]-benzyl}-2-ethyl-5,7-dimethyl-3H-imidazo[4,5-b]pyridine dihydrochloride] yielded an IC50 of 178 nM.
With `CCc1nc2c(C)cc(C)nc2n1Cc1ccc(CCCN2CCN(C3CCCC3)CC2)cc1` [Example 18, 3-{4-[3-(4-Cyclopentyl-piperazin-1-yl)-propyl]-benzyl}-2-ethyl-5,7-dimethyl-3H-imidazo[4,5-b]pyridine] the IC50 was 186 nM.
`CCc1nc2c(C)cc(C)nc2n1Cc1ccc(CCCN2CCN(C3CCCCC3)CC2)cc1` [Example 19, 3-{4-[3-(4-Cyclohexyl-piperazin-1-yl)-propyl]-benzyl}-2-ethyl-5,7-dimethyl-3H-imidazo[4,5-b]pyridine dihydrochloride] was tested, and the IC50 was 182 nM.
With `CCc1nc2c(C)cc(C)nc2n1Cc1ccc(CCCN2CCN(CCOC)CC2)cc1` [Example 20, 2-Ethyl-3-(4-{3-[4-(2-methoxy-ethyl)-piperazin-1-yl]-propyl}-benzyl)-5,7-dimethyl-3H-imidazo[4,5-b]pyridine dihydrochloride] the IC50 was 953 nM.
Compound `CCc1nc2c(C)cc(C)nc2n1Cc1ccc(CCCN2CCN(CCN(C)C)CC2)cc1` [Example 21, [2-(4-{3-[4-(2-Ethyl-5,7-dimethyl-imidazo[4,5-b]pyridin-3-ylmethyl)-phenyl]-propyl}-piperazin-1-yl)-ethyl]-dimethyl-amine dihydrochloride] has an IC50 of 345 nM.
For `CCc1nc2c(C)cc(C)nc2n1Cc1ccc(CCCN2CCN(CC)C(C)C2)cc1` (stereo not shown) [Example 22, 2-Ethyl-3-{4-[3-(4-ethyl-3-methyl-piperazin-1-yl)-propyl]-benzyl}-5,7-dimethyl-3H-imidazo[4,5-b]pyridine dihydrochloride], the IC50 was 223 nM.
Compound `CCc1nc2c(C)cc(C)nc2n1Cc1ccc(CCCN2CCN(C(C)C)C(C)C2)cc1` (stereo not shown) [Example 23, 2-Ethyl-3-{4-[3-(4-isopropyl-3-methyl-piperazin-1-yl)-propyl]-benzyl}-5,7-dimethyl-3H-imidazo[4,5-b]pyridine] has an IC50 of 253 nM.
`CCc1nc2c(C)cc(C)nc2n1Cc1ccc(CCCN2CCN(C)C[C@@H]2C(C)C)cc1` [Example 24, 2-Ethyl-3-{4-[3-((S)-2-isopropyl-4-methyl-piperazin-1-yl)-propyl]-benzyl}-5,7-dimethyl-3H-imidazo[4,5-b]pyridine dihydrochloride] gave an IC50 of 961 nM.
Compound `CCc1nc2c(C)cc(C)nc2n1Cc1ccc(CCCN2CCN(C(C)C)C(CC)C2)cc1` (stereo not shown) [Example 25, 2-Ethyl-3-{4-[3-(3-ethyl-4-isopropyl-piperazin-1-yl)-propyl]-benzyl}-5,7-dimethyl-3H-imidazo[4,5-b]pyridine] has an IC50 of 364 nM.
Compound `CCc1nc2c(C)cc(C)nc2n1Cc1ccc(CCCN2C[C@H]3C[C@@H]2CN3CC)cc1` [Example 26, 2-Ethyl-3-{4-[3-((1R,4R)-5-ethyl-2,5-diaza-bicyclo[2.2.1]hept-2-yl)-propyl]-benzyl}-5,7-dimethyl-3H-imidazo[4,5-b]pyridine] has an IC50 of 877 nM.
For `CCc1nc2c(C)cc(C)nc2n1Cc1ccc(CCCN2C[C@H]3C[C@@H]2CN3CC(C)C)cc1` [Example 27, 2-Ethyl-3-{4-[3-((1R,4R)-5-isobutyl-2,5-diaza-bicyclo[2.2.1]hept-2-yl)-propyl]-benzyl}-5,7-dimethyl-3H-imidazo[4,5-b]pyridine dihydrochloride], the IC50 was 411 nM.
For `CCc1nc2c(C)cc(C)nc2n1Cc1ccc(CCCN2C[C@H]3C[C@@H]2CN3CC2CC2)cc1` [Example 28, 3-{4-[3-((1R,4R)-5-Cyclopropylmethyl-2,5-diaza-bicyclo[2.2.1]hept-2-yl)-propyl]-benzyl}-2-ethyl-5,7-dimethyl-3H-imidazo[4,5-b]pyridine], the IC50 was 436 nM.
With `Cc1cc(C)c2nc(C)n(Cc3ccc(/C=C/CN4CCC(N5CCCCC5)CC4)cc3)c2n1` [Example 30, 1′-{(E)-3-[4-(2,5,7-Trimethyl-imidazo[4,5-b]pyridin-3-ylmethyl)-phenyl]-allyl}-[1,4′]bipiperidinyl] the IC50 was 94 nM.
In the case of `CCc1nc2c(C)cc(C)nc2n1Cc1ccc(/C=C/CN2CCC(N(CC)CC)CC2)cc1` [Example 31, Diethyl-(1-{(E)-3-[4-(2-ethyl-5,7-dimethyl-imidazo[4,5-b]pyridin-3-ylmethyl)-phenyl]-allyl}-piperidin-4-yl)-amine dihydrochloride], the IC50 is reported as 144 nM.
In the case of `CCc1nc2c(C)cc(C)nc2n1Cc1ccc(/C=C/CN2CCC(N3CCCC3)CC2)cc1` [Example 32, 2-Ethyl-5,7-dimethyl-3-{4-[(E)-3-(4-pyrrolidin-1-yl-piperidin-1-yl)-propenyl]-benzyl}-3H-imidazo[4,5-b]pyridine], the IC50 is reported as 177 nM.
